Among the data in ChEMBL document CHEMBL1795338, “Identification of pentacyclic triterpenes derivatives as potent inhibitors against glycogen phosphorylase based on 3D-QSAR studies” (Eur J Med Chem, 2011) are IC50 values, retold here.

For the assay, the target named is T1, Glycogen phosphorylase, muscle form (Oryctolagus cuniculus, UniProt P00489).
T1 sequence (P00489 whole entry): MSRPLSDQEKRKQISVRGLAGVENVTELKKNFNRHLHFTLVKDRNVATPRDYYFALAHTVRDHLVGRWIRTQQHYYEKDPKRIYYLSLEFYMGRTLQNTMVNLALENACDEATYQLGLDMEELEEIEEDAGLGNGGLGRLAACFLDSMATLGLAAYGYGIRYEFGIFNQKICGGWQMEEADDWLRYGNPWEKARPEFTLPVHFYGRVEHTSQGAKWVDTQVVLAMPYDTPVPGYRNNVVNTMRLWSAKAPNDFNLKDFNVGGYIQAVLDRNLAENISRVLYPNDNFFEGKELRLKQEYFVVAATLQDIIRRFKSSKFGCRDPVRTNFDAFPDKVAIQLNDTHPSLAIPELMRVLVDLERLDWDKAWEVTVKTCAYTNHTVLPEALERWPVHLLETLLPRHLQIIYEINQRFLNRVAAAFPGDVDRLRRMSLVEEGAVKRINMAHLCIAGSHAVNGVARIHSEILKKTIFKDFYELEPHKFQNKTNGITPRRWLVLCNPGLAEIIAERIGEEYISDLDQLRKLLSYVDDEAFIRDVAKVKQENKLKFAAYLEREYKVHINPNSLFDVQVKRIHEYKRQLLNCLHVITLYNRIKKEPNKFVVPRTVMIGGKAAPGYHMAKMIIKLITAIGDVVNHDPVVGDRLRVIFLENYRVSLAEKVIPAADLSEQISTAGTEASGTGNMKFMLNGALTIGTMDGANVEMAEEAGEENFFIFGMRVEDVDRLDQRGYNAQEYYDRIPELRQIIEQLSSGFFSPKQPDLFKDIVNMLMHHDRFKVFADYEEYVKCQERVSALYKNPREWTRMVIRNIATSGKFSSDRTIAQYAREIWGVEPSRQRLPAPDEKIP
Put plainly: Inhibition of rabbit muscle glycogen phosphorylase A assessed as release of phosphate from glucose-1-phosphate after 25 mins by microplate reader based method.
Take `COC(=O)[C@@]1(C)[C@@H]2CC[C@]3(C)[C@H](CC=C4[C@@H]5[C@@H](C)[C@H](C)CC[C@]5(C(=O)O)CC[C@]43C)[C@@]2(C)C[C@@H](OC(C)=O)[C@@H]1OC(C)=O`: the IC50 was found to be 33 µM. The value for `CCCOC(=O)[C@@]1(C)[C@@H]2CC[C@]3(C)[C@H](CC=C4[C@@H]5[C@@H](C)[C@H](C)CC[C@]5(C(=O)O)CC[C@]43C)[C@@]2(C)C[C@@H](OC(=O)CCC)[C@@H]1OC(=O)CCC` was 10 µM; that for `CC1(C)CC[C@]2(C(=O)O)CC[C@]3(C)C(=CC[C@@H]4[C@@]5(C)C[C@H](O)[C@H](O)[C@@](C)(CO)[C@@H]5CC[C@]43C)[C@@H]2C1` was 67.8 µM; that for `CC1(C)CC[C@]2(C(=O)OCc3ccccc3)CC[C@]3(C)C(=CC[C@@H]4[C@@]5(C)CC(=O)[C@H](O)C(C)(C)[C@@H]5CC[C@]43C)[C@@H]2C1` was 52.9 µM. For the compound `CC1(C)CC[C@]2(C(=O)O)CC[C@]3(C)C(=CC[C@@H]4[C@@]5(C)C/C(=N\O)[C@H](O)C(C)(C)[C@@H]5CC[C@]43C)[C@@H]2C1`, the IC50 turned out to be 28.2 µM. As to `CC1(C)CC[C@]2(C(=O)OCc3ccccc3)CC[C@]3(C)C(=CC[C@@H]4[C@@]5(C)C/C(=N\O)[C@H](O)C(C)(C)[C@@H]5CC[C@]43C)[C@@H]2C1`, the IC50 was 179 µM. The value for `CC1(C)CC[C@]2(C(=O)O)CC[C@]3(C)C(=CC[C@@H]4[C@@]5(C)C/C(=N\O)C(=O)C(C)(C)[C@@H]5CC[C@]43C)[C@@H]2C1` was 26.1 µM; that for `CC1(C)CC[C@]2(C(=O)OCc3ccccc3)CC[C@]3(C)C(=CC[C@@H]4[C@@]5(C)C/C(=N\O)C(=O)C(C)(C)[C@@H]5CC[C@]43C)[C@@H]2C1` was 46.8 µM. Turning to `C[C@H]1[C@H](C)CC[C@]2(C(=O)OCc3ccccc3)CC[C@]3(C)C(=CC[C@@H]4[C@@]5(C)C/C(=N\O)C(=O)C(C)(C)[C@@H]5CC[C@]43C)[C@H]12`, the IC50 worked out at 82.9 µM.

Turning to `CC1(C)CC[C@]2(C(=O)OCc3ccccc3)CC[C@]3(C)C(=CC[C@@H]4[C@@]5(C)CC(=N\O)/C(=N\O)C(C)(C)[C@@H]5CC[C@]43C)[C@@H]2C1`, the IC50 was 22.3 µM. The value for `CC1(C)CC[C@]2(C(=O)OCc3ccccc3)CC[C@]3(C)C(=CC[C@@H]4[C@@]5(C)C/C(=N\OCc6ccccc6)C(=O)C(C)(C)[C@@H]5CC[C@]43C)[C@@H]2C1` was 61.3 µM; that for `CC1(C)CC[C@]2(C(=O)OCc3ccccc3)CC[C@]3(C)C(=CC[C@@H]4[C@@]5(C)C/C(=N\OCc6ccc(Cl)cc6Cl)C(=O)C(C)(C)[C@@H]5CC[C@]43C)[C@@H]2C1` was 8 µM; that for `CC1(C)CC[C@]2(C(=O)O)CC[C@]3(C)C(=CC[C@@H]4[C@@]5(C)CC6C=NOC6C(C)(C)[C@@H]5CC[C@]43C)[C@@H]2C1` (some centres undefined) was 12.7 µM. As to `CC1(C)CC[C@]2(C(=O)OCc3ccccc3)CC[C@]3(C)C(=CC[C@@H]4[C@@]5(C)CC6C=NOC6C(C)(C)[C@@H]5CC[C@]43C)[C@@H]2C1` (some centres undefined), the IC50 was determined as 19.6 µM. Consider `CC1(C)CC[C@]2(C(=O)O)CC[C@]3(C)C(=CC[C@@H]4[C@@]5(C)Cc6nonc6C(C)(C)[C@@H]5CC[C@]43C)[C@@H]2C1`, for which the 50% inhibitory concentration (IC50) is 11.2 µM. The value for `C[C@H]1[C@H](C)CC[C@]2(C(=O)O)CC[C@]3(C)C(=CC[C@@H]4[C@@]5(C)Cc6nonc6C(C)(C)[C@@H]5CC[C@]43C)[C@H]12` was 66.3 µM; that for `C[C@H]1[C@H](C)CC[C@]2(C(=O)OCc3ccccc3)CC[C@]3(C)C(=CC[C@@H]4[C@@]5(C)C[C@H](O)[C@H](O)C(C)(C)[C@@H]5CC[C@]43C)[C@H]12` was 108 µM; that for `C[C@H]1[C@H](C)CC[C@]2(C(=O)OCc3ccccc3)CC[C@]3(C)C(=CC[C@@H]4[C@@]5(C)C[C@@H]6O[C@@H]6C(C)(C)[C@@H]5CC[C@]43C)[C@H]12` was 69.5 µM. As to `CC1(C)CC[C@]2(C(=O)O)CC[C@]3(C)C(=CC[C@@H]4[C@@]5(C)Cc6cnn(-c7ccccc7)c6C(C)(C)[C@@H]5CC[C@]43C)[C@@H]2C1`, the half-inhibitory concentration (IC50) is 35.1 µM.
